Measured values: ChEMBL document CHEMBL1201862, “PubChem BioAssay data set” (2004)
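Method: 48-hour compound exposure of cells in 96-well plates, five concentrations, linear interpolation of endpoints. GI50 is the concentration that inhibits growth by half.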 The source made the active and inactive calls. Cut-off read from the data, not from the text of the source: active = GI50 up to about 1.1 µM and inactive = higher.

What was measured:
Assay in all cases: NCI-60 cell line screen, 48 h
[1] = test system: SW-620
[2] = test system: HOP-62
[3] = test system: IGROV-1
[4] = test system: A549
[5] = test system: SK-MEL-2
[6] = test system: SR
[7] = test system: OVCAR-4
[8] = test system: HCT-15
[9] = test system: HT-29
[10] = test system: EKVX
[11] = test system: ACHN
[12] = test system: RXF 631
[13] = test system: UACC-257
[14] = test system: A498
[15] = test system: LXFL 529
[16] = test system: Malme-3M
[17] = test system: SF-539
[18] = test system: UACC-62
[19] = test system: SNB-75
[20] = test system: CAKI-1
[21] = test system: SNB-78
[22] = test system: OVCAR-3
[23] = test system: SK-MEL-28
[24] = test system: HCT-116
[25] = test system: SNB-19
[26] = test system: 786-0
[27] = test system: SK-MEL-5
[28] = test system: UO-31
[29] = test system: DMS-273
[30] = test system: HL-60
[31] = test system: TK-10
[32] = test system: NCI-H460
[33] = test system: COLO 205
[34] = test system: U-251
[35] = test system: XF498
[36] = test system: K562
[37] = test system: KM-20L2
[38] = test system: SF-295
[39] = test system: NCI-H23
[40] = test system: SN12C
[41] = test system: OVCAR-8
[42] = test system: OVCAR-5
[43] = test system: SF-268
[44] = test system: SK-OV-3
[45] = test system: CCRF-CEM
[46] = test system: HOP-92
[47] = test system: M19-MEL
[48] = test system: RXF 393
[49] = test system: DMS-114
[50] = test system: M14
[51] = test system: DLD-1
[52] = test system: MOLT-4
[53] = test system: HOP-18
[54] = test system: RPMI-8226
[55] = test system: MDA-N
[56] = test system: DU-145
[57] = test system: HCC 2998
[58] = test system: NCI-H226
[59] = test system: Hs-578T
[60] = test system: MDA-MB-435
[61] = test system: BT-549
[62] = test system: LOX IMVI
[63] = test system: PC-3
[64] = test system: NCI/ADR-RES
[65] = test system: NCI-H522
[66] = test system: MCF7
[67] = test system: T47D
[68] = test system: KM12

O=[N+]([O-])c1ccc(C2N3CCCCC3[C@@H]3c4[nH]c5ccccc5c4CCN23)cc1 (some centres not stated)
GI50 [1]: 22.6 µM (inactive)
GI50 [2]: 19.5 µM (inactive)
GI50 [3]: 24 µM (inactive)
GI50 [4]: 19.5 µM (inactive)
GI50 [5]: 16.9 µM (inactive)
GI50 [6]: 3.12 µM (inactive)
GI50 [7]: 22.6 µM (inactive)
GI50 [8]: 14.3 µM
GI50 [9]: 3.48 µM (inactive)
GI50 [10]: 29.9 µM (inactive)
GI50 [11]: 12.8 µM (inactive)
GI50 [12]: 28.5 µM (inactive)
GI50 [13]: 16.5 µM (inactive)
GI50 [14]: 11.3 µM (inactive)
GI50 [15]: 16.8 µM (inactive)
GI50 [16]: < 0.01 µM (active)
GI50 [17]: 13.3 µM (inactive)
GI50 [18]: 5.22 µM (inactive)
GI50 [19]: 0.0638 µM (active)
GI50 [20]: 26.9 µM (inactive)
GI50 [21]: 3.96 µM (inactive)
GI50 [22]: 18.4 µM (inactive)
GI50 [23]: 16.3 µM (inactive)
GI50 [24]: 6.44 µM (inactive)
GI50 [25]: 16.6 µM (inactive)
GI50 [26]: 28.1 µM (inactive)
GI50 [27]: 15 µM (inactive)
GI50 [28]: 16.1 µM (inactive)
GI50 [29]: 17.5 µM (inactive)
GI50 [30]: 80.2 µM (inactive)
GI50 [31]: 10.7 µM (inactive)
GI50 [32]: 19.2 µM (inactive)
GI50 [33]: 17.6 µM (inactive)
GI50 [34]: 20.2 µM (inactive)
GI50 [35]: 17.8 µM (inactive)
GI50 [36]: 7.82 µM (inactive)
GI50 [37]: 11 µM (inactive)
GI50 [38]: 26.1 µM (inactive)
GI50 [39]: 15.5 µM (inactive)
GI50 [40]: 15.4 µM (inactive)
GI50 [41]: 30.4 µM (inactive)
GI50 [42]: 25.9 µM (inactive)
GI50 [43]: 15.4 µM (inactive)
GI50 [44]: 22.6 µM (inactive)
GI50 [45]: 27.5 µM (inactive)
GI50 [46]: 44.6 µM (inactive)
GI50 [47]: 6.07 µM (inactive)
GI50 [48]: 4.59 µM (inactive)
GI50 [49]: 7.19 µM (inactive)
GI50 [50]: 16.1 µM (inactive)
GI50 [51]: 10.8 µM (inactive)
GI50 [52]: 10.2 µM (inactive)
GI50 [53]: 67.3 µM (inactive)
GI50 [54]: 16.5 µM (inactive)

CCCCCCCCCCCCCCCCCCN(C)CC(COC)OP(=O)([O-])OCC[N+](C)(C)C (configuration not stated)
GI50 [1]: 3.15 µM (inactive)
GI50 [2]: 1.72 µM (inactive)
GI50 [3]: 0.532 µM (active)
GI50 [4]: 1.78 µM (inactive)
GI50 [5]: 14.4 µM (inactive)
GI50 [6]: 0.341 µM (active)
GI50 [7]: 2.54 µM (inactive)
GI50 [8]: 3.14 µM
GI50 [9]: 1.28 µM (inactive)
GI50 [10]: 12.5 µM (inactive)
GI50 [11]: 1.91 µM (inactive)
GI50 [12]: 5.25 µM (inactive)
GI50 [13]: 9.08 µM (inactive)
GI50 [14]: 3.77 µM (inactive)
GI50 [55]: 4.2 µM (inactive)
GI50 [15]: 2.21 µM (inactive)
GI50 [16]: 11.7 µM (inactive)
GI50 [17]: 3.84 µM (inactive)
GI50 [18]: 3.05 µM (inactive)
GI50 [19]: 1.01 µM (active)
GI50 [20]: 1.33 µM (inactive)
GI50 [21]: 3.56 µM (inactive)
GI50 [22]: 2.24 µM (inactive)
GI50 [23]: 15.7 µM (inactive)
GI50 [56]: 2.22 µM (inactive)
GI50 [24]: 1.66 µM (inactive)
GI50 [57]: 1.42 µM (inactive)
GI50 [25]: 0.867 µM (active)
GI50 [58]: 4.32 µM (inactive)
GI50 [59]: 4.93 µM (inactive)
GI50 [26]: 0.938 µM (active)
GI50 [27]: 9.44 µM (inactive)
GI50 [28]: 7.52 µM (inactive)
GI50 [60]: 5.08 µM (inactive)
GI50 [29]: 0.625 µM (active)
GI50 [30]: 0.495 µM (active)
GI50 [31]: 1.03 µM (active)
GI50 [32]: 0.851 µM (active)
GI50 [33]: 1.21 µM (inactive)
GI50 [34]: 0.891 µM (active)
GI50 [61]: 2.53 µM (inactive)
GI50 [35]: 4.93 µM (inactive)
GI50 [62]: 5.14 µM (inactive)
GI50 [36]: 9.42 µM (inactive)
GI50 [63]: 0.374 µM (active)
GI50 [64]: 17.9 µM (inactive)
GI50 [65]: 1.43 µM (inactive)
GI50 [37]: 2 µM (inactive)
GI50 [38]: 1.07 µM (active)
GI50 [39]: 3.16 µM (inactive)
GI50 [40]: 3.3 µM (inactive)
GI50 [41]: 3.27 µM (inactive)
GI50 [42]: 1.72 µM (inactive)
GI50 [43]: 1.48 µM (inactive)
GI50 [66]: 3.97 µM (inactive)
GI50 [44]: 11.2 µM (inactive)
GI50 [45]: 1.51 µM (inactive)
GI50 [46]: 1.17 µM (inactive)
GI50 [47]: 2.75 µM (inactive)
GI50 [48]: 0.824 µM (active)
GI50 [49]: 2.84 µM (inactive)
GI50 [67]: 14 µM (inactive)
GI50 [50]: 4.11 µM (inactive)
GI50 [51]: 1.47 µM (inactive)
GI50 [52]: 2.83 µM (inactive)
GI50 [53]: 1.85 µM (inactive)
GI50 [54]: 0.635 µM (active)
GI50 [68]: 0.644 µM (active)
